Patent publication US20190375778A1, “ADENOSINE DERIVATIVES FOR USE IN THE TREATMENT OF CANCER” (NuCana plc, priority 2016, published 2019)
Read-outs that look alike come from different tables or passages of the source.

Legend:
human T-lymphocyte CEM = assay: Cell proliferation (Coulter count) assay, CEM; assay type: cell-based; conditions: 72 h, read-out: absolute IC50, CEM
In short: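 Cells grown in DMEM with 10% FBS. HeLa seeded at 10 000 cells/well, compound added after 24 h, counted day 5; L1210 and CEM seeded at 60 000 cells/well with compound, counted after 48 h and 72 h respectively. IC50 is concentration halving proliferation by Coulter count.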

KG-1 = assay: CellTiterGlo viability assay, KG-1; assay type: cell-based; conditions: Homo sapiens, read-out: IC50 KG-1
Description: (§1) In vitro viability assay were performed to assess the effects of compounds on cell viability in selected cell lines over ˜72 hrs using the CellTiterGlo (CTG, Promega-G7573) assay. The tests were performed in duplicates with treatment of compounds at 9 points, 3.16 folds titration in 96 well plates over ˜72 hrs. The compound starting concentrations were 198 μM. Cell viability assay using CellTiterGlo in 96-well plate were performed. Compound treatment 72 hrs, standard growth conditions, duplicates. Compounds were dissolved to 40 mM with thawed […]. Compounds were serially diluted at 3.16 fold in thawed DMSO, and warmed to 37° C. before being dissolved in media (2 μl+200 μl). After compounds were dissolved in media, media containing compounds were warmed to 37° C. in incubator and then compounds in media were added to cell plates (50 μl+50 μl) in duplicates. The compounds' final concentrations were from […] to 19.9 nM. All compound solubilities were checked and recorded again, then the plates were transferred to CO2 tissue culture incubator immediately and incubated for 3 days. DMSO final concentration is 0.5%.

THP-1 = assay: CellTiterGlo viability assay, THP-1; assay type: cell-based; conditions: Homo sapiens, read-out: IC50 THP-1
Description: as §1

MiaPaCa-2 = assay: CellTiterGlo viability assay, MiaPaCa-2; assay type: cell-based; conditions: for IC50: read-out: IC50 MiaPaCa-2
Description: as §1

SW620 = assay: CellTiterGlo viability assay, SW620; assay type: cell-based; conditions: Homo sapiens, read-out: IC50 SW620
Description: as §1

HT29 = assay: CellTiterGlo viability assay, HT29; assay type: cell-based; conditions: for IC50: read-out: IC50 HT29
Description: as §1

BxPC-3 = assay: CellTiterGlo viability assay, BxPC-3; assay type: cell-based; conditions: Homo sapiens, read-out: IC50 BxPC-3
Description: as §1

MV4-11 = assay: CellTiterGlo viability assay, MV4-11; assay type: cell-based; conditions: Homo sapiens, read-out: IC50 MV4-11
Description: as §1

RPMI-8226 = assay: CellTiterGlo viability assay, RPMI-8226; assay type: cell-based, Human; conditions: for IC50: read-out: IC50 RPMI-8226
Description: as §1

MOLT-4 = assay: CellTiterGlo viability assay, MOLT-4; assay type: cell-based; conditions: for IC50: read-out: IC50 MOLT-4
Description: as §1

[1] = system: KG1a leukaemic stem cell compartment (Lin−/CD34+/CD38−/CD123+); assay: Leukaemic stem cell compartment in KG1a; assay type: cell-based; conditions: for Change relative to control (%): % LSC compartment versus the series' control; for KG-1a (CD34+/CD38−/CD123+) % compartment: LSC as percentage of viable cells left, 72 hrs
Description: A further comparative analysis of the toxicity of compounds in the KG1a cell line over an extended dose range was carried out, and the relative effect assessed of the compounds on the leukaemic stem cell compartment within the KG1a cell line, across the entire dose range. Thus, experimental tests were performed on certain compounds of the present invention to assess their ability to target cancer stem cells in a leukaemic cell line. The acute myeloid leukaemia (AML) cell line, KG1a, was employed to assess the relative effect of compounds on the stem cell compartment. The KG1a cell line was selected because it manifests a minor stem cell-like compartment with a distinct immunophenotype (Lin^−/CD34^+/CD38^−/CD123^+).
Cells of the KG1a cell line were maintained in RPMI medium (Invitrogen, Paisley, UK) supplemented with 100 units/ml penicillin, 100 μg/ml streptomycin and 20% foetal calf serum. Cells were subsequently aliquoted (10^5 cells/100 μl) into 96-well plates and were incubated at 37° C. in a humidified 5% carbon dioxide atmosphere for 72 hrs in the presence of nucleoside analogues and their respective nucleotide analogues (known as ProTides) at concentrations that were experimentally determined for each series of compounds. In addition, control cultures were carried out to which no drug was added. Cells were subsequently harvested by centrifugation and were analyzed by flow cytometry using the Annexin V assay.
KG1a cells were cultured for 72 hrs in the presence of a wide range of concentrations of each compound assayed. Cells were then harvested and labelled with a cocktail of anti-lineage antibodies (PE-cy7), anti-CD34 (FITC), anti-CD38 (PE) and anti-CD123 (PERCP cy5). The sub-population expressing a leukaemic stem cell (LSC) phenotype were subsequently identified and were expressed as a percentage of all viable cells left in the culture. The percentages of stem cells remaining were then plotted on a dose-response graph and the effects of the compounds were compared with 8-chloroadenosine.
The data obtained in these experiments were evaluated using one way ANOVA. All data was confirmed as Gaussian or a Gaussian approximation using the omnibus K2 test. LD50 values were calculated from the non-linear regression and line of best-fit analysis of the sigmoidal dose-response curves. All statistical analyses were performed using Graphpad Prism 6.0 software (Graphpad Software Inc., San Diego, Calif.).

[2] = Homo sapiens, MIA PaCa-2, CellTiterGlo, 72 hrs
[3] = Homo sapiens, HT-29, CellTiterGlo, 72 hrs
[4] = Homo sapiens, RPMI-8226, CellTiterGlo, 72 hrs
[5] = Homo sapiens, MOLT-4, CellTiterGlo, 72 hrs

SMILES	IC50 (human T-lymphocyte CEM)	IC50 (KG-1; KG-1, 72 h)	IC50 (THP-1; THP-1, 72 h)	IC50 (MiaPaCa-2; Homo sapiens, MIA PaCa-2, 72 h)	IC50 (SW620; SW-620, 72 h)	IC50 (HT29; Homo sapiens, HT-29, 72 h)	IC50 (BxPC-3; BXPC-3, 72 h)	IC50 (MV4-11; MV4-11, 72 h)	IC50 (RPMI-8226; Homo sapiens, RPMI-8226, 72 h)	IC50 (MOLT-4; Homo sapiens, MOLT-4, 72 h)	KG-1a (CD34+/CD38−/CD123+) % compartment [1]	further results
C[C@H](NP(=O)(OC[C@H]1O[C@@H](n2c(Cl)nc3c(N)ncnc32)C(O)C1O)Oc1cccc2ccccc12)C(=O)OCc1ccccc1 (stereo partly drawn) [Compound D, (2S)-Benzyl 2-(((((2R,3S,4R,5R)-5-(6-amino-8-chloro-9H-purin-9-yl)-3,4-dihydroxy-tetrahydrofuran-2-yl)methoxynaphthalene-1-yloxy)phosphoryl)amino)propanoate]	0.1 to 5 µM	5 to 15 µM	0.1 to 5 µM	0.1 to 5 µM	0.1 to 5 µM	0.1 to 5 µM	5 to 15 µM	0.1 to 5 µM	0.1 to 5 µM	0.1 to 5 µM	2.5%	Change relative to control (%) [1]: −0.8%
Nc1ncnc2c1nc(Cl)n2[C@@H]1O[C@H](COP(=O)(NCC(=O)OCc2ccccc2)NCC(=O)OCc2ccccc2)C(O)C1O (stereo partly drawn) [Compound AC, 8-Chloroadenosine 5′-O-bis(benzyloxy-glycin-N-yl) phosphate]	0.1 to 5 µM	–	–	–	–	–	–	–	–	–	–	IC50 (KG-1; KG-1, CellTiterGlo, 72 hrs): 0.1 to 5 µM; IC50 (THP-1; THP-1, CellTiterGlo, 72 hrs): 0.1 to 5 µM; IC50 (MiaPaCa-2; [2]): 0.1 to 5 µM; IC50 (SW620; SW-620, CellTiterGlo, 72 hrs): 0.1 to 5 µM; IC50 (HT29; [3]): 0.1 to 5 µM; IC50 (BxPC-3; BXPC-3, CellTiterGlo, 72 hrs): 5 to 15 µM; IC50 (MV4-11; MV4-11, CellTiterGlo, 72 hrs): 0.1 to 5 µM; IC50 (RPMI-8226; [4]): 0.1 to 5 µM; IC50 (MOLT-4; [5]): 0.1 to 5 µM; targeting of leukaemic/cancer stem cells in words ([1]; KG1a, compared to 8-chloroadenosine (FIG. 2, FIG. 8)): no evidence of a capacity to target cancer stem cells
Nc1ncnc2c1nc(Cl)n2[C@@H]1O[C@H](CO)[C@@H](O)[C@H]1O [8-chloroadenosine, 8-Chloroadenosine, reference compound]	0.1 to 5 µM	–	–	–	–	–	–	–	–	–	3.7%	IC50 (KG-1; KG-1, CellTiterGlo, 72 hrs): 0.1 to 5 µM; IC50 (THP-1; THP-1, CellTiterGlo, 72 hrs): 0.1 to 5 µM; Top in. % MiaPa-Ca-2 (MiaPaCa-2): 86.2%; IC50 (MiaPaCa-2; [2]): 0.1 to 5 µM; EC50 (MiaPaCa-2; Homo sapiens, MIA PaCa-2, read-out: Ab EC50 (μM) MiaPa-Ca-2): 0.44 µM; IC50 (SW620; SW-620, CellTiterGlo, 72 hrs): 0.1 to 5 µM; Top in. % HT29 (HT29): 80.2%; IC50 (HT29; [3]): 0.1 to 5 µM; EC50 (HT29; Homo sapiens, HT-29, read-out: Ab EC50 (μM) HT29): 1.35 µM; IC50 (BxPC-3; BXPC-3, CellTiterGlo, 72 hrs): 5 to 15 µM; IC50 (MV4-11; MV4-11, CellTiterGlo, 72 hrs): 0.1 to 5 µM; Top in. % RPMI-8226 (RPMI-8226): 96.2%; IC50 (RPMI-8226; [4]): 0.1 to 5 µM; EC50 (RPMI-8226; Homo sapiens, RPMI-8226, read-out: Ab EC50 (μM) RPMI-8226): 1.34 µM; Top in. % MOLT-4 (MOLT-4): 76.0%; IC50 (MOLT-4; [5]): 0.1 to 5 µM; EC50 (MOLT-4; Homo sapiens, MOLT-4, read-out: Ab EC50 (μM) MOLT-4): 3.27 µM; Change relative to control (%) [1]: +0.4%
CC(C)C[C@H](NP(=O)(OC[C@H]1O[C@@H](n2c(Cl)nc3c(N)ncnc32)C(O)C1O)Oc1ccccc1)C(=O)OCc1ccccc1 (stereo partly drawn) [V, 5′-([(Benzyloxy-L-leucin-N-yl)-phenyl]-phosphatyl) 8-chloroadenosine]	–	5 to 15 µM	0.1 to 5 µM	0.1 to 5 µM	0.1 to 5 µM	0.1 to 5 µM	5 to 15 µM	0.1 to 5 µM	0.1 to 5 µM	0.1 to 5 µM	–	–
CCCCCOC(=O)[C@H](C)NP(=O)(OC[C@H]1O[C@@H](n2c(Cl)nc3c(N)ncnc32)C(O)C1O)Oc1cccc2ccccc12 (stereo partly drawn) [Compound E, (2S)-Pentyl 2-(((((2R,3S,4R,5R)-5-(6-amino-8-chloro-9H-purin-9-yl)-3,4-dihydroxy-tetrahydrofuran-2-yl)methoxnaphthalene-1-yloxy)phosphoryl)amino)propanoate]	0.1 to 5 µM	0.1 to 5 µM	0.1 to 5 µM	0.1 to 5 µM	0.1 to 5 µM	0.1 to 5 µM	5 to 15 µM	0.1 to 5 µM	0.1 to 5 µM	0.1 to 5 µM	3.5%	–
C[C@H](NP(=O)(OC[C@H]1O[C@@H](n2c(Cl)nc3c(N)ncnc32)[C@H](O)[C@@H]1O)Oc1ccccc1)C(=O)OCc1ccccc1 (mixture of isomers) [C, (2S)-Benzyl 2-(((((2R,3S,4R,5R)-5-(6-amino-8-chloro-9H-purin-9-yl)-3,4-dihydroxy-tetrahydrofuran-2-yl)methoxy)(phenoxy)phosphoryl)amino)propanoate]	15 to 100 µM	> 100 µM	15 to 100 µM	5 to 15 µM	15 to 100 µM	5 to 15 µM	15 to 100 µM	0.1 to 5 µM	5 to 15 µM	0.1 to 5 µM	3.3%	–
Nc1ncnc2c1nc(Cl)n2[C@@H]1O[C@H](COP(=O)(NCC(=O)OC2CCCCC2)Oc2ccccc2)[C@@H](O)[C@H]1O (mixture of isomers) [Compound A, Cyclohexyl 2-(((((2R,3S,4R,5R)-5-(6-amino-8-chloro-9H-purin-9-yl)-3,4-dihydroxy-tetrahydrofuran-2-yl)methoxy)(phenoxy)phosphoryl)amino)acetate]	15 to 100 µM	> 100 µM	15 to 100 µM	5 to 15 µM	15 to 100 µM	15 to 100 µM	15 to 100 µM	0.1 to 5 µM	5 to 15 µM	15 to 100 µM	–	–
